Test results reported in PubChem BioAssay (NCI).
“And” between values parts separate entries of the source, which are not always exact repeats. Identical values can stand only once.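 Cells were grown in 96-well plates and exposed to each compound for 48 hours at five concentrations; endpoints were interpolated linearly between bracketing concentrations, or set to the highest concentration if not reached. GI50 = concentration required for 50% inhibition of growth. TGI: total growth inhibition.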 Where a SMILES comes first, the peptide text is derived from it. Bridges are numbered along the chain shown (N, C = ends). [ ]: non-standard residue; d: D form. aThr = C[C@H](O)[C@H](N)C(=O)O

Tests used:
Experiment in all cases: DTP human tumour cell line panel, 48 h
UACC-62 melanoma = tested on: UACC-62 melanoma
SK-MEL-5 melanoma = tested on: SK-MEL-5 melanoma
MDA-MB-231 breast = tested on: MDA-MB-231 breast
NCI-H23 lung = tested on: NCI-H23 lung
HT29 colon = tested on: HT29 colon
BT-549 breast = tested on: BT-549 breast
COLO 205 colon = tested on: COLO 205 colon
UACC-257 melanoma = tested on: UACC-257 melanoma
RXF 393 renal = tested on: RXF 393 renal
SR leukemia = tested on: SR leukemia

Row | SMILES | GI50 (UACC-62 melanoma) | TGI (UACC-62 melanoma) [µM] | GI50 (SK-MEL-5 melanoma) | TGI (SK-MEL-5 melanoma) | GI50 (MDA-MB-231 breast) | TGI (MDA-MB-231 breast) [µM] | GI50 (NCI-H23 lung) | TGI (NCI-H23 lung) [µM] | GI50 (HT29 colon) | TGI (HT29 colon) | GI50 (BT-549 breast) | TGI (BT-549 breast) | GI50 (COLO 205 colon) | TGI (COLO 205 colon) | GI50 (UACC-257 melanoma) [µM] | TGI (UACC-257 melanoma) [µM] | GI50 (RXF 393 renal) [µM] | TGI (RXF 393 renal) [µM] | TGI (SR leukemia) [µM]
1 | ClCCOCCn1cnc2c(Cl)nc(Cl)nc21 | 14 µM | 27.2 | 12.5 µM | 25.5 µM | 14.4 µM | 28.3 | 12.8 µM | 29.1 | 19.6 µM | 73.6 µM | 14.7 µM | 28.2 µM | 13.2 µM | 27.5 µM | 14.1 | 28.5 |  |  | 
2 | CC(C)C[C@@H]1NC(=O)[C@@H]2CCCN2C(=O)[C@@H]2CCCN2C(=O)[C@H](CC(C)C)NC(=O)[C@H](CO)NC(=O)[C@H](CCCCN)NC(=O)[C@H]([C@H](C)O)NC(=O)[C@@H]2CSSC[C@@H](NC1=O)C(=O)N[C@@H](Cc1ccccc1)C(=O)N1CCC[C@H]1C(=O)N[C@@H](CC(=O)O)C(=O)NCC(=O)N[C@@H](CCCN=C(N)N)C(=O)N2 (cyclo(C[aThr]KSLPPL[dC]FPDGR); disulfide 1-9) | > 50 µM | > 50 | > 50 µM | > 50 µM | > 50 µM | > 50 | > 50 µM | > 50 | > 50 µM | > 50 µM | > 50 µM | > 50 µM | > 50 µM | > 50 µM | > 50 | > 50 | > 50 | > 50 | 
3 | C[C@H](C(=O)O)C(=O)NC(=O)N(Cc1ccccc1)N=O |  | > 100 |  | > 100 µM |  |  |  |  |  | > 100 µM |  |  |  | > 100 µM |  | > 100 |  |  | 
4 | CC(=O)OCC(=O)[C@@]1(O)CC[C@H]2[C@@H]3C[C@H](C)C4=CC(=O)C=C[C@]4(C)[C@@]3(F)[C@@H](O)C[C@@]21C |  | > 100 |  | > 100 µM |  |  |  | > 100 |  | > 100 µM |  |  |  | > 100 µM |  | > 100 |  | > 100 | > 100
5 | OC(c1ccccc1Br)(c1ccccc1Br)C(F)(F)F |  | 57.7 |  |  |  |  |  | 78.3 |  | 38.3 µM |  |  |  | 33.1 µM |  | 72.9 |  | 34.5 | 45.9
6 | O=C(CCCC(=O)Nc1ccc(Cl)cc1Cl)CC(=O)c1ccc2ccccc2c1 |  | > 100 |  | > 100 µM |  |  |  | > 100 |  | > 100 µM |  |  |  | > 100 µM |  | > 100 |  | > 100 | 
7 | COc1cc(OC)c(OC)cc1/C=C/c1nc2ccccc2s1 |  |  |  | > 100 µM |  | > 100 |  | > 100 |  | > 100 µM |  |  |  | > 100 µM |  | > 100 |  | > 100 | 
8 | N#CC1CC(c2ccccc2)Nc2cc(Cl)ccc2N1 (configuration not stated) |  | > 100 |  | > 100 µM |  |  |  | > 83.7 |  | > 76.2 µM |  |  |  | > 83.4 µM |  | > 100 |  | 98.7 | 59.8
9 | c1ccc(C(c2ccccc2)c2ccccn2)cc1 |  | > 100 |  | > 100 µM |  |  |  | > 100 |  | > 100 µM |  |  |  | > 100 µM |  | > 100 |  |  | 
10 | O=C1NC(=O)C2C(=O)NC(=O)C1C2Cc1ccco1 (configuration not stated) |  | > 100 |  | > 100 µM |  |  |  | > 100 |  | > 100 µM |  |  |  | > 100 µM |  | > 100 |  | > 100 | 
11 | COc1ccc(-c2nc3ccc(Cc4ccc5nc(-c6ccc(OC)cc6)[nH]c5c4)cc3[nH]2)cc1 | 0.0471 µM | 2.19 | 0.0193 µM | 1.27 µM | 0.0476 µM | 0.586 | 0.0516 µM | 2.81 | < 0.01 µM | 0.11 µM | 0.231 µM | 2.54 µM | < 0.01 µM | 0.184 µM | 1.5 | 3.31 |  |  | 
12 | CCOC(=O)C1(C)CCC(C(C(=O)O)C(=O)O)CC1=O (configuration not stated) |  | > 100 |  | > 100 µM |  |  |  |  |  | > 100 µM |  |  |  | > 100 µM |  | > 100 |  | > 100 | > 100
13 | CCc1ccc(Nc2cc(C)c3ccc(O)cc3n2)cc1 | 8.57 µM | 22.1 | 4.08 µM | 14.3 µM | 3.12 µM | 13.7 | 3.34 µM | 15.6 | 3.57 µM | 12.5 µM | 4.48 µM | 16.3 µM | 10.4 µM | 24.3 µM |  |  | 4.08 | 17.1 | 
14 | O=NN(CCCl)C(=O)NC1CCC(CC(=O)O)CC1 (configuration not stated) |  | > 100 |  | > 100 µM |  |  |  | > 100 |  | > 100 µM |  |  |  | > 100 µM |  | > 100 |  | > 100 | > 100
15 | COC(=O)C1=C(C(=O)OC)C2(c3ccccc3)OC1(c1ccccc1)c1cc3ccccc3cc12 |  | 4.26 |  | 3.69 µM |  |  |  | 4.48 |  | 3.49 µM |  |  |  | 4.18 µM |  |  |  | 2.57 | 
16 | Cc1cccc(Cn2cc(CO)c3cnccc32)c1 | 75.4 µM | > 100 | 24.1 µM | > 100 µM | > 100 µM | > 100 | 19.2 µM | > 100 | 67.2 µM | > 100 µM | 35.7 µM | > 100 µM | > 100 µM | > 100 µM | 44.2 | > 100 | > 100 | > 100 | 
17 | CC(=O)[CH-]C(=O)c1ccccc1.[C-]#[O+].[C-]#[O+].[Ir] | > 100 µM | > 100 | > 100 µM | > 100 µM |  |  | > 100 µM | > 100 | > 10 µM | > 10 µM |  |  | > 100 µM | > 100 µM | > 100 | > 100 | > 100 | > 100 | 
18 | CN1CCN(c2c(F)cc(NC3=C(Cl)C(=O)c4ncccc4C3=O)cc2F)CC1 | 14.8 µM | 28 | 15.2 µM | 28.8 µM | 3.47 µM | 12.3 | 11.8 µM | 32 | 4.67 µM | 22.5 µM | 12.9 µM | 25.9 µM | 2.14 µM | 4.82 µM | 1.68 | 3.39 | 1.67 | 3.31 | 
19 | CC[C@H](C)[C@H](NC(=O)[C@H]1CCCCN1C)C(=O)N(C)[C@H](C[C@@H](OC(C)=O)c1nc(C(=O)NC23CC(C(=O)OC)(C2)C3)cs1)C(C)C | 0.000614 µM and 0.00325 µM | > 32.5 | 0.000748 µM and 0.00325 µM | 0.0299 µM and 0.0384 µM | 0.00163 µM and 0.00363 µM | > 32.5 | 0.00511 µM and 0.00325 µM | > 32.5 | 0.000433 µM and 0.00325 µM | 0.0103 µM and 0.011 µM | 0.00048 µM and 0.00325 µM | 0.0253 µM and 0.0318 µM | 0.00152 µM and 0.00325 µM | 0.0299 µM and 0.0339 µM |  |  |  |  | > 32.5
